# Data reported in patent US9604925B2, “Class II HMG-CoA reductase inhibitors and methods of use” (Purdue Research Foundation, priority 2012, dated 2017).
# Marks after values point to notes of the source that are not given here.
# Tests used:
# MRSA = assay: Time-kill assay against MRSA in MHB
# [1] = tested on: Staphylococcus aureus ATCC 6538 adherent organisms (biofilm); assay: MIC/MBC in adherent-cell biofilm of S. aureus ATCC 6538; type: cell-based; conditions: for Adherent organisms (biofilm) MIC^b: S. aureus ATCC 6538, 20 h; for Adherent organisms (biofilm) MBC^b: S. aureus ATCC 6538, regrowth 20 h in antibiotic-free MHB
# Protocol: An adherent biofilm for susceptibility testing was formed using a clinical isolate of Staphylococcus aureus (ATCC 6538). S. aureus biofilms were prepared in a tissue culture non-treated polystyrene 96-well plate (Corning) and washed with phosphate-buffered saline (PBS) to remove unbound bacteria. Subsequently, serial twofold dilutions of the compounds in MHB were added to wells containing adherent organisms. The polystyrene plates were incubated for 20 h at 37° C. The MIC was taken as the lowest drug concentration at which observable growth was inhibited.
# [2] = tested on: C. elegans infected with MRSA; assay: Treatment of C. elegans infected with MRSA; conditions: MRSA-infected worms, 100 μM; for Log CFU/worm: 16 hours treatment; for Log Reduction: versus DMSO control
# [3] = tested on: Bacillus anthracis Sterne strain (34F2); type: cell-based; conditions: for inhibition of growth in initial screen: 100 μM; for Bacillus anthracis MBC / Bacillus anthracis MIC: MHB
# S. aureus HMGR = S. aureus HMGR (Staphylococcus aureus, UniProt Q9FD86); assay: biochemical
# Brucella abortus = type: cell-based; conditions: for inhibition of growth in initial screen: 100 μM; for Brucella abortus (single value, head does not say MIC or MBC): MHB
# J774A.1 cells = assay: In vitro cell viability/cytotoxicity MTS assay; type: cell-based; conditions: 100 μM, 24 hours
# Protocol: Cytotoxicity of the compounds was evaluated using J774A.1 cells (mitochondrial function) in the CellTiter 96® AQueous Non-Radioactive Cell Proliferation Assay (Promega). […] Formazan is measured by measuring the absorbance at 490 nm. Briefly, ˜2×10^4 J774A.1 cells suspended in 200 μL DMEM supplemented with 10% fetal bovine serum (FBS), L-glutamine, NaHCO3, pyridoxine-HCl, and […] glucose and preserved with 1% penicillin-streptomycin solution were seeded in 96-well plates and incubated at 37° C. in a 5% CO2 atmosphere. The cells were cultured for 24 hours (60% confluency) before the assays. The J774A.1 cells were further incubated with 100 μM of compounds (2f, […], 2j, and 2e) and DMSO as a control for 24 hours. The culture media was discarded, and the cells in each well were washed with PBS and re-suspended with 100 μL of cell culture media prior to addition of the assay reagent. The plates were incubated for 4 hours at 37° C. in a humidified 5% CO2 atmosphere. The absorbance at 490 nm was recorded using a 96-well Elisa plate reader (SoftMax ProInc., USA). Results were expressed as the percentage mean absorbance by cells upon incubation with various treatments (compounds 2f, 2j, 2i, and 2e) with respect to incubation with DMSO. The results are expressed as means from six measurements±SD.
# [4] = tested on: vancomycin resistant Enterococcus faecalis (VRE) ATCC 51299; assay: MIC/MBC micro dilution against VRE; conditions: VRE ATCC 51299, MHB, 20 hours
# [5] = tested on: Staphylococcus aureus ATCC 6538 planktonic organisms (not in biofilm); assay: MIC/MBC against planktonic S. aureus ATCC 6538; type: cell-based
# [6] = tested on: Candida albicans ATCC 18804; assay: MIC/MFC against Candida albicans in YM broth; type: cell-based; conditions: yeast medium broth
# Protocol: Antifungal activities of 22 HMG-CoA Reductase inhibitors were initially tested at 100 μM concentration against Candida albicans ATCC 18804.
# [7] = tested on: vancomycin intermediate Staphylococcus aureus (VISA) NRS1; assay: MIC/MBC against clinical VISA isolate
# Bacillus cereus = assay: Screen and MIC/MBC against Bacillus cereus; type: cell-based; conditions: for inhibition of growth in initial screen: 100 μM; for Bacillus cereus MBC / Bacillus cereus MIC: MHB
# [8] = tested on: methicillin-resistant Staphylococcus aureus (MRSA) ATCC 43300; assay: MIC/MBC micro dilution against MRSA; conditions: for MRSA MBC: MRSA ATCC 43300, MHB, 20 hours, Table 2; for MBC / MIC: Staphylococcus aureus
# [9] = tested on: clinical methicillin-resistant Staphylococcus aureus (MRSA) isolates; assay: MIC/MBC against clinical MRSA isolates
# Bacillus subtilis = assay: Screen and MIC/MBC against Bacillus subtilis; type: cell-based; conditions: for inhibition of growth in initial screen: 100 μM; for Bacillus subtilis MBC / Bacillus subtilis MIC: MHB
# Listeria monocytogenes = assay: Screen and MIC/MBC against Listeria monocytogenes; type: cell-based; conditions: for inhibition of growth in initial screen: 100 μM; for Listeria monocytogenes MBC / Listeria monocytogenes MIC: MHB
# [10] = tested on: C. elegans infected with VRE; assay: Treatment of C. elegans infected with VRE; conditions: VRE-infected worms, 100 μM
# E. faecalis II-HMGR = E. faecalis II-HMGR (Enterococcus faecalis, UniProt Q9FD70); assay: biochemical
# Sequence of S. aureus HMGR (Q9FD86 entry or part of it): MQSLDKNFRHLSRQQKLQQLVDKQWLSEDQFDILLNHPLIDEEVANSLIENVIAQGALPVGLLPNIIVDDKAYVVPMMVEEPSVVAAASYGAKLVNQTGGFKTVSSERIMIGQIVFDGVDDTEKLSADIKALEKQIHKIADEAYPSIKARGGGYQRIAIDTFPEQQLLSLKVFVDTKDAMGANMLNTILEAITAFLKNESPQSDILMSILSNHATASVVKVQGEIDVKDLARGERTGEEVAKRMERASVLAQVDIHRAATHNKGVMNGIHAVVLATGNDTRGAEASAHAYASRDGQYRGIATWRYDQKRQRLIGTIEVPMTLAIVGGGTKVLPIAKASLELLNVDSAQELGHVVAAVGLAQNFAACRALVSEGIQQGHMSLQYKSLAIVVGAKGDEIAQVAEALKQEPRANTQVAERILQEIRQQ
smiles,measurement,setting,value
"CN[C@H](CC(C)C)C(=O)N[C@H]1C(=O)N[C@@H](CC(N)=O)C(=O)N[C@H]2C(=O)N[C@H]3C(=O)N[C@H](C(=O)N[C@H](C(=O)O)c4cc(O)cc(O)c4-c4cc3ccc4O)[C@H](O)c3ccc(c(Cl)c3)Oc3cc2cc(c3O[C@@H]2O[C@H](CO)[C@@H](O)[C@H](O)[C@H]2O[C@H]2C[C@](C)(N)[C@H](O)[C@H](C)O2)Oc2ccc(cc2Cl)[C@H]1O [Vancomycin, vancomycin, reference compound]",time-kill of MRSA cells,MRSA; 3× MIC,failed to reduce the number of CFU by 3-log10 within a 10 hour window
same,Adherent organisms (biofilm) MIC^b,[1],2 µM
same,Adherent organisms (biofilm) MBC^b,[1],8 µM
same,Log CFU/worm,[2],3.26 ± 0.20 Log CFU/worm
same,Log Reduction,[2],1.78*
"CC(C)CCCCc1ccc(NS(=O)(=O)c2ccc(O)c(C(=O)O)c2)cc1 [Compound 2j, 2-hydroxy-5-[N-(4-(5-methylhexyl)phenyl)sulfamoyl]benzoic acid]",inhibition of growth in initial screen,[3],showed inhibition of growth
same,Bacillus anthracis MBC,[3],32/32
same,Bacillus anthracis MIC,[3],32/32
same,IC50,S. aureus HMGR,22 µM
same,inhibition of growth in initial screen,Brucella abortus,showed inhibition of growth
same,"Brucella abortus (single value, head does not say MIC or MBC)",Brucella abortus,64 µM
same,percentage mean absorbance at 490 nm (MTS) versus DMSO,J774A.1 cells,no significant differences in percentage mean absorption
same,VRE MBC,[4],128/128
same,Adherent organisms (biofilm) MIC^b,[1],128 µM
same,Adherent organisms (biofilm) MBC^b,[1],128 µM
same,Planktonic organisms (not in biofilm) MBC,[5],64 µM
same,Planktonic organisms (not in biofilm) MIC,[5],64 µM
same,Candida albicans MFC,[6],128/>128
same,Candida albicans MIC,[6],128/>128
same,MBC,[7],16 µM
same,MIC,[7],16 µM
same,inhibition of growth in initial screen,Bacillus cereus,showed inhibition of growth
same,Bacillus cereus MBC,Bacillus cereus,64/64
same,Bacillus cereus MIC,Bacillus cereus,64/64
same,MRSA MBC,[8],64/64
same,MBC,[8],64 µM
same,MIC,[8],64 µM
same,MBC,[9]; MRSA / NRS123 / USA400,32 µM
same,MIC,[9]; MRSA / NRS123 / USA400,16 µM
same,MBC,[9]; MRSA / NRS382 / USA100,32 µM
same,MIC,[9]; MRSA / NRS382 / USA100,16 µM
same,MBC,[9]; MRSA / NRS383 / USA200,32 µM
same,MIC,[9]; MRSA / NRS383 / USA200,16 µM
same,MBC,[9]; MRSA / NRS384 / USA300,32 µM
same,MIC,[9]; MRSA / NRS384 / USA300,16 µM
same,MBC,[9]; MRSA / NRS385 / USA500,16 µM
same,MIC,[9]; MRSA / NRS385 / USA500,16 µM
same,MBC,[9]; MRSA / NRS386 / USA700,16 µM
same,MIC,[9]; MRSA / NRS386 / USA700,16 µM
same,MBC,[9]; MRSA / NRS387 / USA800,32 µM
same,MIC,[9]; MRSA / NRS387 / USA800,16 µM
same,MBC,[9]; MRSA / NRS483,32 µM
same,MIC,[9]; MRSA / NRS483,16 µM
same,MBC,[9]; MRSA / NRS484,32 µM
same,MIC,[9]; MRSA / NRS484,16 µM
same,inhibition of growth in initial screen,Bacillus subtilis,showed inhibition of growth
same,Bacillus subtilis MBC,Bacillus subtilis,32/32
same,Bacillus subtilis MIC,Bacillus subtilis,32/32
same,inhibition of growth in initial screen,Listeria monocytogenes,showed inhibition of growth
same,Listeria monocytogenes MBC,Listeria monocytogenes,128/>128
same,Listeria monocytogenes MIC,Listeria monocytogenes,128/>128
"CCCCCCCCCCc1ccc(NS(=O)(=O)c2ccc(O)c(C(=O)O)c2)cc1 [Compound 2f, 5-[N-(4-decylphenyl)sulfamoyl]-2-hydroxybenzoic acid]",inhibition of growth in initial screen,[3],showed inhibition of growth
same,Bacillus anthracis MBC,[3],16/16
same,Bacillus anthracis MIC,[3],16/16
same,IC50,S. aureus HMGR,7.2 µM
same,inhibition of growth in initial screen,Brucella abortus,showed inhibition of growth
same,"Brucella abortus (single value, head does not say MIC or MBC)",Brucella abortus,128 µM
same,percentage mean absorbance at 490 nm (MTS) versus DMSO,J774A.1 cells,no significant differences in percentage mean absorption
same,time-kill of MRSA cells,MRSA; 1× MIC or 2× MIC,four hours are required to eliminate bacteria completely
same,time-kill of MRSA cells,MRSA; 3× MIC,complete elimination of MRSA cells within a two-hour window
same,VRE MBC,[4],32/32
same,Adherent organisms (biofilm) MIC^b,[1],64 µM
same,Adherent organisms (biofilm) MBC^b,[1],128 µM
same,Planktonic organisms (not in biofilm) MBC,[5],16 µM
same,Planktonic organisms (not in biofilm) MIC,[5],16 µM
same,Candida albicans MFC,[6],16/16
same,Candida albicans MIC,[6],16/16
same,MBC,[7],4 µM
same,MIC,[7],4 µM
same,Log CFU/worm,[10]; 16 hours treatment,0.70 ± 0.37 Log CFU/worm
same,Log Reduction,[10]; versus DMSO control,4.20*
same,inhibition of growth in initial screen,Bacillus cereus,showed inhibition of growth
same,Bacillus cereus MBC,Bacillus cereus,16/16
same,Bacillus cereus MIC,Bacillus cereus,16/16
same,MRSA MBC,[8],16/16
same,MBC,[8],16 µM
same,MIC,[8],16 µM
same,MBC,[9]; MRSA / NRS123 / USA400,16 µM
same,MIC,[9]; MRSA / NRS123 / USA400,4 µM
same,MBC,[9]; MRSA / NRS382 / USA100,8 µM
same,MIC,[9]; MRSA / NRS382 / USA100,8 µM
same,MBC,[9]; MRSA / NRS383 / USA200,4 µM
same,MIC,[9]; MRSA / NRS383 / USA200,4 µM
same,MBC,[9]; MRSA / NRS384 / USA300,8 µM
same,MIC,[9]; MRSA / NRS384 / USA300,4 µM
same,MBC,[9]; MRSA / NRS385 / USA500,8 µM
same,MIC,[9]; MRSA / NRS385 / USA500,4 µM
same,MBC,[9]; MRSA / NRS386 / USA700,8 µM
same,MIC,[9]; MRSA / NRS386 / USA700,4 µM
same,MBC,[9]; MRSA / NRS387 / USA800,8 µM
same,MIC,[9]; MRSA / NRS387 / USA800,4 µM
same,MBC,[9]; MRSA / NRS483,8 µM
same,MIC,[9]; MRSA / NRS483,4 µM
same,MBC,[9]; MRSA / NRS484,8 µM
same,MIC,[9]; MRSA / NRS484,4 µM
same,inhibition of growth in initial screen,Bacillus subtilis,showed inhibition of growth
same,Bacillus subtilis MBC,Bacillus subtilis,16/16
same,Bacillus subtilis MIC,Bacillus subtilis,16/16
same,Log CFU/worm,[2],2.33 ± 0.09 Log CFU/worm
same,Log Reduction,[2],2.71*
same,inhibition of growth in initial screen,Listeria monocytogenes,showed inhibition of growth
same,Listeria monocytogenes MBC,Listeria monocytogenes,> 128 µM
same,Listeria monocytogenes MIC,Listeria monocytogenes,64 µM
"CCCCc1ccc(NS(=O)(=O)c2ccc(O)c(C(=O)O)c2)cc1 [Compound 1, 5-[N-(4-butylphenyl)sulfamoyl]-2-hydroxybenzoic acid]",IC50,S. aureus HMGR,91 ± 5 µM
same,IC50,E. faecalis II-HMGR,5 µM
